Laboratory results from paper PMC4168902 (2014).

Experiments:
[1] = test system: poly A–poly U (poly rA–poly rU) (RNA, polymer) A/U; assay: UV thermal melting at 260 nm; settings: Na+ (sodium cacodylate, I = 0.05 M); sodium cacodylate pH 7.0; r = [compound]/[polynucleotide] = 0.3; per base
[2] = test system: poly dA–poly dT (DNA, polymer) A/T; assay: UV thermal melting at 260 nm; settings: Na+ (sodium cacodylate, I = 0.05 M); sodium cacodylate pH 7.0; r = [compound]/[polynucleotide] = 0.3; per base
[3] = test system: poly dAdT–poly dAdT (DNA, polymer) AT; assay: UV thermal melting at 260 nm; settings: Na+ (sodium cacodylate, I = 0.05 M); sodium cacodylate pH 7.0; r = [compound]/[polynucleotide] = 0.3; per base
[4] = test system: poly A–poly U (poly rA–poly rU) (RNA, polymer) A/U; assay: UV–vis titration, Scatchard fit; settings: Na+ (sodium cacodylate, I = 0.05 M); sodium cacodylate pH 7.0, 25 °C; polynucleotide as nucleobases/phosphates; per base
[5] = test system: poly dA–poly dT (DNA, polymer) A/T; assay: UV–vis titration, Scatchard fit; settings: Na+ (sodium cacodylate, I = 0.05 M); sodium cacodylate pH 7.0, 25 °C; polynucleotide as nucleobases/phosphates; per base
[6] = test system: poly dAdT–poly dAdT (DNA, polymer) AT; assay: UV–vis titration, Scatchard fit; settings: Na+ (sodium cacodylate, I = 0.05 M); sodium cacodylate pH 7.0, 25 °C; polynucleotide as nucleobases/phosphates; per base
[7] = test system: poly dG–poly dC (DNA, polymer) G/C; assay: UV–vis titration, Scatchard fit; settings: Na+ (sodium cacodylate, I = 0.05 M); sodium cacodylate pH 7.0, 25 °C; polynucleotide as nucleobases/phosphates; per base

Row | ΔTm [1] [°C] | ΔTm [2] [°C] | ΔTm [3] [°C] | log Ks [4] | log Ks [5] | log Ks [6] | log Ks [7] | Structure (SMILES)
1 | 0 | 0 | 0 | 5.7 | 5.0 |  | 5.6 | Nc1ncnc2c1ncn2CCCCCCOc1ccccc1C(=O)C1=CNc2ccccc2N=CC(C(=O)c2ccccc2OCCCCCC[n+]2ccccc2)=CNc2ccccc2N=C1
2 |  |  |  | 6.6 | 5.4 |  | 5.8 | Nc1ncnc2c1ncn2CCCCCOc1ccccc1C(=O)C1=CNc2ccccc2N=CC(C(=O)c2ccccc2OCCCCC[n+]2ccccc2)=CNc2ccccc2N=C1

More lines, now with the values behind:

Row | Structure (SMILES) | ΔTm [1] [°C] | ΔTm [2] [°C] | ΔTm [3] [°C] | log Ks [4] | log Ks [5] | log Ks [6] | log Ks [7]
3 | CCCCCCOc1ccccc1C(=O)C1=CNc2ccccc2N=CC(C(=O)c2ccccc2OCCC[n+]2ccccc2)=CNc2ccccc2N=C1 | 0 | 0 | 0 |  |  |  | 
4 | C[N+](C)(C)CCCOc1ccccc1C(=O)C1=CNc2ccccc2N=CC(C(=O)c2ccccc2OCCCn2cnc3c(N)ncnc32)=CNc2ccccc2N=C1 | 0 | 0 | < 2 | 5.8 | 5.9 | 5.5 | 5.7
5 | Nc1ncnc2c1ncn2CCCOc1ccccc1C(=O)C1=CNc2ccccc2N=CC(C(=O)c2ccccc2OCCC[n+]2ccccc2)=CNc2ccccc2N=C1 | 0.5 | 0.7 | < 3 | 6.0 | 6.2 | 6.1 | 5.5
